Article PMC7270110, “Labeled oxytocin administered via the intranasal route reaches the brain in rhesus macaques” (Nature Communications, 2020)

How the values were obtained:
[1] = nonhuman primate, cited from earlier work
Protocol: […] For IV administration, 1 ml was administered via a peripheral IV catheter. For IN administration, an IN Mucosal Atomization Device [MAD, Teleflex Medical, Research Triangle Park, NC] was used. This same device was used in our previous nonhuman primate study. […] Of not ...

[2] = Plasma concentration of endogenous d0OT by LC-MS/MS; type: in vivo, rhesus macaques (Macaca mulatta); conditions: LLOQ 10 pg/ml, MDL 4 pg/ml
Protocol: The six monkeys were dosed once a week, for 4 consecutive weeks, with each DOSE–ROUTE condition of d5OT (40 IU IN, 40 IU IV, 80 IU IN, or 80 IU IV). Each DOSE–ROUTE condition was assigned using a Latin square randomization (Table 4). Sessions were separated by at least 6 days. During each session, CSF (750 µl) and blood (5 ml) samples were drawn immediately prior to (T = 0) and following (T = 60 and 120 min) each administration of d5OT.
Chemicals: An unlabeled standard for d0OT and deuterated standard for d5OT were purchased from Sigma-Aldrich (St. Louis, MO); d10OT was purchased for use as an internal standard through a custom order from Cayman Chemical (Ann Arbor, MI). All other reagents were commercially available, and we purchased LC or MS grade chemicals when available. Plasma and CSF sample preparation for LC–MS/MS analysis. […]
Solid-phase extraction (SPE) columns (Strata-X-Drug B, 60 mg/6 ml, Phenomenex, Torrance, CA) were conditioned prior to use by adding 2 ml of methanol, followed by 2 ml of water, and 2 ml of 0.2 M ammonium acetate (pH 3.0) in water; each was allowed to flow through by gravity before the next was added. […] After a 15 min incubation at 4 °C, plates were filtered into microtiter plates (Shimadzu, Kyoto, Japan) using a positive pressure manifold (8 min at 5 psi, followed by 15 s at 15 psi; Biotage, Uppsala, Sweden), and analyzed. […]

d0OT in plasma [2]: not detected
Structure (SMILES): CC[C@H](C)[C@@H]1NC(=O)[C@H](Cc2ccc(O)cc2)NC(=O)[C@@H](N)CSSC[C@@H](C(=O)N2CCC[C@H]2C(=O)N[C@@H](CC(C)C)C(=O)NCC(N)=O)NC(=O)[C@H](CC(N)=O)NC(=O)[C@H](CCC(N)=O)NC1=O [OT, oxytocin]
Concentration of CSF OT ([1]; IN administration of unlabeled OT with a different IN device): no increased concentration | CSF OT concentrations ([1]; OT 48 IU, MAD spray and nebulizer): significant elevations
